Assay results taken from ChEMBL document CHEMBL4184123, “Discovery of novel 2-substituted-4-phenoxypyridine derivatives as potential antitumor agents” (Bioorg Med Chem Lett, 2018).
pIC50: −log10 of the molar value.

Assays:
HT-29 = assay: cells; settings: Homo sapiens, HT-29, 72 h
A549 = assay: cells; settings: Homo sapiens, A549, 72 h
Description: Antiproliferative activity against human A549 cells after 72 hrs by MTT assay

U-87 MG = assay: Antiproliferative activity against human U87MG cells after 72 hrs by MTT assay; assay type: functional, cell-based, U-87MG ATCC
NCI-H460 = assay: Antiproliferative activity against human H460 cells after 72 hrs by MTT assay; assay type: functional, cell-based; settings: NCI-H460, 72 h
[1] = molecular target: Platelet-derived growth factor receptor alpha (Homo sapiens, UniProt P16234); assay: Inhibition of PDGFRalpha (unknown origin) using poly (Glu, Tyr) 4:1 as substrate after 30 mins in presence of ATP by HTRF assay
[2] = molecular target: T1, Receptor-type tyrosine-protein kinase FLT3 (Homo sapiens, UniProt P36888); assay: Inhibition of FLT3 (unknown origin) using poly (Glu, Tyr) 4:1 as substrate after 30 mins in presence of ATP by HTRF assay
T1 sequence (P36888 whole entry): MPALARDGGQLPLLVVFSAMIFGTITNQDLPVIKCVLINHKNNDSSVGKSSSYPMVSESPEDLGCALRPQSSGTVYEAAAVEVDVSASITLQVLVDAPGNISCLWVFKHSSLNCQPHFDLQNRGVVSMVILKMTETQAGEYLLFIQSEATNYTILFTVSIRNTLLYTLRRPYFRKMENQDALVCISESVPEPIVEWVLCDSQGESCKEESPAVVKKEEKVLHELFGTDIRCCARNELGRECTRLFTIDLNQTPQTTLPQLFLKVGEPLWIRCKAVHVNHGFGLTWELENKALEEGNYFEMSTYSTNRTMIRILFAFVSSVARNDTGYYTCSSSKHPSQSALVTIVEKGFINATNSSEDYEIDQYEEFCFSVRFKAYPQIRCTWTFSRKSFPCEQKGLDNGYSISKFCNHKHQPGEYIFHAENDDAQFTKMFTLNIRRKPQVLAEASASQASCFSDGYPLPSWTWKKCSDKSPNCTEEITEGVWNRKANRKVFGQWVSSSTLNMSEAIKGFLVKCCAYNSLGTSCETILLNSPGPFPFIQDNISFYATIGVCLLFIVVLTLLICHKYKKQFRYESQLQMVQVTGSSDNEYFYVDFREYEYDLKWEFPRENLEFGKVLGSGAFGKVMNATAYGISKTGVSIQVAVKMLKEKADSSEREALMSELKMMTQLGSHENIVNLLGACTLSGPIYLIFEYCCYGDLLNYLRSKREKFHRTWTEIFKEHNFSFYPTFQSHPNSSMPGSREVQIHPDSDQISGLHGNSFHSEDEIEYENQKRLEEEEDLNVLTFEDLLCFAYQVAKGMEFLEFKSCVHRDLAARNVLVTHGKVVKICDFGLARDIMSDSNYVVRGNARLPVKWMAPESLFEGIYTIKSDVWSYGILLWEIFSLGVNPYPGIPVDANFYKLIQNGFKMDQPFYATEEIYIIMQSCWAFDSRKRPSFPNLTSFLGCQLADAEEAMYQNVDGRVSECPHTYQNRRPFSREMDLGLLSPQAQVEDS

[3] = molecular target: Vascular endothelial growth factor receptor 3 (Homo sapiens, UniProt P35916); assay: Inhibition of VEGFR3 (unknown origin) using poly (Glu, Tyr) 4:1 as substrate after 30 mins in presence of ATP by HTRF assay
Chain of Vascular endothelial growth factor receptor 3 (P35916 whole entry): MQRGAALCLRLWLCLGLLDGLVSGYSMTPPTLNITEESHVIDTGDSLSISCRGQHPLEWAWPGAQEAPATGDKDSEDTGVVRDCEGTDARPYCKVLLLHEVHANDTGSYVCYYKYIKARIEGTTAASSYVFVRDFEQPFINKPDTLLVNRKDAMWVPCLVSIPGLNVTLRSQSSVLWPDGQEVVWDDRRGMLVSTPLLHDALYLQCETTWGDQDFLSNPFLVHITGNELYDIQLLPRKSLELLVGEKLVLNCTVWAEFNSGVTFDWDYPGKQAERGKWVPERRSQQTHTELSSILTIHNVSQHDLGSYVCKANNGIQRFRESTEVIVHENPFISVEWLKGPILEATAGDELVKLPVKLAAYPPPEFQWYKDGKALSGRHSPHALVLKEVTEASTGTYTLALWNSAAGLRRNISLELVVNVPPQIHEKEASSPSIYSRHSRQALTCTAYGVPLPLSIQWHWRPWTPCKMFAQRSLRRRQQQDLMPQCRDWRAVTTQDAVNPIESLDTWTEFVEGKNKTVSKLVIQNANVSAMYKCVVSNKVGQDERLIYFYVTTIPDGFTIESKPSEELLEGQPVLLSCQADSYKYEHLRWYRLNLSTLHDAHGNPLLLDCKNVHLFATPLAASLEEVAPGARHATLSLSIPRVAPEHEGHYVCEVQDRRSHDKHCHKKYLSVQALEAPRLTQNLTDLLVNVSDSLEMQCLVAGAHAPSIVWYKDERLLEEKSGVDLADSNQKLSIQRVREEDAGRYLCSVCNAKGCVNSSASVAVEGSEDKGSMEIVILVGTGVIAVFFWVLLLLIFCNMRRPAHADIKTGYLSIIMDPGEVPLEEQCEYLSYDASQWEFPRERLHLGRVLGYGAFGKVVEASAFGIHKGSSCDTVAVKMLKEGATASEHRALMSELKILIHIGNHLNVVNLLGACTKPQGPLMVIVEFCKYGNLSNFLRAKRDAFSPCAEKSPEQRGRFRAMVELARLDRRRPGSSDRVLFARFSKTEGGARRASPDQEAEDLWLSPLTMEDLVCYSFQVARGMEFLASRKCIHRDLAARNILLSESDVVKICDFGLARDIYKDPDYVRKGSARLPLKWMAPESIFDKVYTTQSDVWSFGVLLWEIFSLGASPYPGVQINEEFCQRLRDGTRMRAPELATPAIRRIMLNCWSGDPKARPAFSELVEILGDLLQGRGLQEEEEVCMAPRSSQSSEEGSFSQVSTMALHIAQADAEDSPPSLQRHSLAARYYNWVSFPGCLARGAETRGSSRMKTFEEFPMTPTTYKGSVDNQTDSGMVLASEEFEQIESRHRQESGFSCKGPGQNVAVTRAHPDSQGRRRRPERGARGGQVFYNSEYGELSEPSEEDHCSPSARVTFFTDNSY

[4] = molecular target: Hepatocyte growth factor receptor (Homo sapiens, UniProt P08581); assay: Inhibition of c-MET (unknown origin) using poly (Glu, Tyr) 4:1 as substrate after 30 mins in presence of ATP by HTRF assay
[5] = molecular target: Vascular endothelial growth factor receptor 2 (Homo sapiens, UniProt P35968); assay: Inhibition of VEGFR2 (unknown origin) using poly (Glu, Tyr) 4:1 as substrate after 30 mins in presence of ATP by HTRF assay
[6] = molecular target: ALK tyrosine kinase receptor (Homo sapiens, UniProt Q9UM73); assay: Inhibition of ALK (unknown origin) using poly (Glu, Tyr) 4:1 as substrate after 30 mins in presence of ATP by HTRF assay
Chain of ALK tyrosine kinase receptor (Q9UM73 whole entry): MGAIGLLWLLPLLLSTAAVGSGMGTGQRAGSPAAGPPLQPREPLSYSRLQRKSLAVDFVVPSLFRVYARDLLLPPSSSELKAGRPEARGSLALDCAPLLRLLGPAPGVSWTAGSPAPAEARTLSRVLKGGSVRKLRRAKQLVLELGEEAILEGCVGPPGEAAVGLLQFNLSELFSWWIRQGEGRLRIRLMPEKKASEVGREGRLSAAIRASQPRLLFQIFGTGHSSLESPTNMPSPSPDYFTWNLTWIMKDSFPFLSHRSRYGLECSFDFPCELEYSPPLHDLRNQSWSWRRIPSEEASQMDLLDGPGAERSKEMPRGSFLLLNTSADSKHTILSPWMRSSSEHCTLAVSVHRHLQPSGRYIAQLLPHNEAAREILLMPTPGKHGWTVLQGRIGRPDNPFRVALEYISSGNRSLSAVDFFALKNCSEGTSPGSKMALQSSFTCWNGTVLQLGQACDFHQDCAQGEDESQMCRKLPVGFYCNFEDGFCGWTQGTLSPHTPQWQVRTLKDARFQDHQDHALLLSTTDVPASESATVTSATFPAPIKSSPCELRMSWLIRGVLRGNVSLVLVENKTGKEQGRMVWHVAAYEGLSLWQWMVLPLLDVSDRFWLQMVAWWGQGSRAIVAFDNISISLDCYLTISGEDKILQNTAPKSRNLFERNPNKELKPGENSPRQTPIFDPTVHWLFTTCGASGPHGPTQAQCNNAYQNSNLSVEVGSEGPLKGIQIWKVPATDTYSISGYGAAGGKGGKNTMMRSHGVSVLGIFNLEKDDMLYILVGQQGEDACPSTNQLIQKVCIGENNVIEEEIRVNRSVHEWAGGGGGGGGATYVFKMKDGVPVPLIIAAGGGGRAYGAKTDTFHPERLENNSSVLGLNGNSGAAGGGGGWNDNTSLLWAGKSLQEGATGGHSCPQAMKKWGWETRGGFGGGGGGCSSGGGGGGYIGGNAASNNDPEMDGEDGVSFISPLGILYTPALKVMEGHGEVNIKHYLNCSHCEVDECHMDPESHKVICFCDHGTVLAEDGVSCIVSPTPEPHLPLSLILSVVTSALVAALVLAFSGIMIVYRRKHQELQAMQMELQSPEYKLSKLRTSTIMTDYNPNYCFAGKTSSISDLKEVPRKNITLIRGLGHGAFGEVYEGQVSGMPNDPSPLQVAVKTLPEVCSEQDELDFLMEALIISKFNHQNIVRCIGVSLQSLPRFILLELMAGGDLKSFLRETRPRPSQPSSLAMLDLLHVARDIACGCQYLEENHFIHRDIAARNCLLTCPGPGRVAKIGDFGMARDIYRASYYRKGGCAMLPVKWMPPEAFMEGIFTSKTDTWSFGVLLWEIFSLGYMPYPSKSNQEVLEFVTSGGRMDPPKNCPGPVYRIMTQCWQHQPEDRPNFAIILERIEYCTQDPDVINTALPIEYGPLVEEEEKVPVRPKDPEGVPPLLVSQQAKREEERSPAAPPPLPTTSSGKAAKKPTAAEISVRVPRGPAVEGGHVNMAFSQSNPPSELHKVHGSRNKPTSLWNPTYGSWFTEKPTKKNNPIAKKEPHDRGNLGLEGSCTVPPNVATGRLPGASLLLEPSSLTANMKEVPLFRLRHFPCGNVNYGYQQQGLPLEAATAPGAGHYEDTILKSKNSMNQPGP

[7] = molecular target: Platelet-derived growth factor receptor beta (Homo sapiens, UniProt P09619); assay: Inhibition of PDGFRbeta (unknown origin) using poly (Glu, Tyr) 4:1 as substrate after 30 mins in presence of ATP by HTRF assay
[8] = molecular target: Mast/stem cell growth factor receptor Kit (Homo sapiens, UniProt P10721); assay: Inhibition of c-KIT (unknown origin) using poly (Glu, Tyr) 4:1 as substrate after 30 mins in presence of ATP by HTRF assay
[9] = molecular target: Epidermal growth factor receptor (Homo sapiens, UniProt P00533); assay: Inhibition of EGFR (unknown origin) using poly (Glu, Tyr) 4:1 as substrate after 30 mins in presence of ATP by HTRF assay
Chain of Epidermal growth factor receptor (P00533 whole entry): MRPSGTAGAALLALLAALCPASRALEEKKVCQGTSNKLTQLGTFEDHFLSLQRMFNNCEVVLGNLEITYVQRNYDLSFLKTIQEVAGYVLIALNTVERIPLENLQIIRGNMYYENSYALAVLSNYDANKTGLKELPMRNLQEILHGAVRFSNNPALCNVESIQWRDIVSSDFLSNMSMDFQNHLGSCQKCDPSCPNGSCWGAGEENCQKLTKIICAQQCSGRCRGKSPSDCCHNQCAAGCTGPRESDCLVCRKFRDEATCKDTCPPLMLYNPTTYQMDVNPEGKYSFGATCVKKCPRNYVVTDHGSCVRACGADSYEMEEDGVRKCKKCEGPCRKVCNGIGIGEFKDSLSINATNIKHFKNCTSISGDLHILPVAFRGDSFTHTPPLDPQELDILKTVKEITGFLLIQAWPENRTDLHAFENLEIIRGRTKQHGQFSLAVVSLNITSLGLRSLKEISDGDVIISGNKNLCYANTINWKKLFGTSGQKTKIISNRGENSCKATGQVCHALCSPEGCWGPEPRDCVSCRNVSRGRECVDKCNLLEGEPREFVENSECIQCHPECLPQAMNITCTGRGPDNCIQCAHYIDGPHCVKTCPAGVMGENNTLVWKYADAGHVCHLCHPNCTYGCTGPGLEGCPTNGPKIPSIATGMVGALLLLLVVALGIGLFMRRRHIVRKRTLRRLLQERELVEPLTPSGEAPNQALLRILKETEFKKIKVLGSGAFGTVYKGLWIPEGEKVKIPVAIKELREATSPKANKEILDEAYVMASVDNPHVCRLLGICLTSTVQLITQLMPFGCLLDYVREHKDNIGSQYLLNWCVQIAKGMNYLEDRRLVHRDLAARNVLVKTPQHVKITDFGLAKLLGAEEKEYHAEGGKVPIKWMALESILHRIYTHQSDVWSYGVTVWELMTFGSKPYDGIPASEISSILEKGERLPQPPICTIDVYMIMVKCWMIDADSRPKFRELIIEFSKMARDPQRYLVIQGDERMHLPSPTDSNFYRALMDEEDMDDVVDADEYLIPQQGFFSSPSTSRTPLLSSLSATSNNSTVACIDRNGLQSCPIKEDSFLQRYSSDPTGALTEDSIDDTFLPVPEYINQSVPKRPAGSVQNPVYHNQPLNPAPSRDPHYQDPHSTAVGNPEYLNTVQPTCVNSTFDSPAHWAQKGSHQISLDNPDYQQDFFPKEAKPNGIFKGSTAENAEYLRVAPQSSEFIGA

| SMILES | pIC50 (HT-29) | pIC50 (A549) | pIC50 (U-87 MG) | pIC50 (NCI-H460) | further results |
| --- | --- | --- | --- | --- | --- |
| CNC(=O)c1cc(Oc2ccc(NC(=O)c3cc4cccnc4n(-c4ccc(F)c(Cl)c4)c3=O)cc2)ccn1 | 5.74 | 5.81 |  |  |  |
| CNC(=O)c1cc(Oc2ccc(NC(=O)c3cc4cccnc4n(-c4ccc(OC)cc4)c3=O)cc2)ccn1 | 6.04 | 5.51 |  |  |  |
| CNC(=O)c1cc(Oc2ccc(NC(=O)c3cc4cccnc4n(-c4ccc(C(F)(F)F)cc4Cl)c3=O)cc2)ccn1 | 5.50 | 5.68 | 4.70 | 5.68 |  |
| CCCNC(=O)c1cc(Oc2ccc(NC(=O)c3cc4cccnc4n(-c4ccc(OC)cc4)c3=O)cc2)ccn1 | 5.81 | 6.09 | 5.09 | 5.76 |  |
| CCCNC(=O)c1cc(Oc2ccc(NC(=O)c3cc4cccnc4n(-c4ccc(F)c(Cl)c4)c3=O)cc2)ccn1 | 6.04 | 6.23 | 5.44 | 5.80 |  |
| CCNC(=O)c1cc(Oc2ccc(NC(=O)c3cc4cccnc4n(-c4ccc(C(F)(F)F)cc4Cl)c3=O)cc2)ccn1 | 5.32 | 5.48 |  |  |  |
| CNC(=O)c1cc(Oc2ccc(NC(=O)c3cc4cccnc4n(-c4ccc(Br)cc4)c3=O)cc2)ccn1 | 5.93 | 5.98 | 4.82 | 5.43 |  |
| CCCNC(=O)c1cc(Oc2ccc(NC(=O)c3cc4cccnc4n(-c4ccc(Br)cc4)c3=O)cc2)ccn1 | 6.28 | 6.82 | 5.28 | 6.21 |  |
| CNC(=O)c1cc(Oc2ccc(NC(=O)c3cc4cccnc4n(-c4ccc(Br)cc4F)c3=O)cc2)ccn1 | 5.71 | 5.85 |  |  |  |
| CCNC(=O)c1cc(Oc2ccc(NC(=O)c3cc4cccnc4n(-c4ccc(Br)cc4)c3=O)cc2)ccn1 | 5.94 | 6.04 |  |  |  |
| CCNC(=O)c1cc(Oc2ccc(NC(=O)c3cc4cccnc4n(-c4ccc(F)c(Cl)c4)c3=O)cc2)ccn1 | 5.59 | 5.72 |  |  |  |
| CCCNC(=O)c1cc(Oc2ccc(NC(=O)c3cc4cccnc4n(-c4ccc(C(F)(F)F)cc4Cl)c3=O)cc2)ccn1 | 5.71 | 5.90 | 4.96 | 5.50 |  |
| CCNC(=O)c1cc(Oc2ccc(NC(=O)c3cc4cccnc4n(-c4ccc(OC)cc4)c3=O)cc2)ccn1 | 5.47 | 5.70 | 5.14 | 5.76 |  |
| CCNC(=O)c1cc(Oc2ccc(NC(=O)c3cc4cccnc4n(-c4ccc(Br)cc4F)c3=O)cc2)ccn1 | 5.68 | 5.74 | 4.99 | 5.75 |  |
| CCCNC(=O)c1cc(Oc2ccc(NC(=O)c3cc4cccnc4n(-c4ccc(Br)cc4F)c3=O)cc2)ccn1 | 5.67 | 5.88 |  |  |  |

Stronger by pIC50 (HT-29), values ahead:

| pIC50 (HT-29) | pIC50 (A549) | pIC50 (U-87 MG) | pIC50 (NCI-H460) | SMILES | further results |
| --- | --- | --- | --- | --- | --- |
| 6.48 | 6.60 |  |  | CCNC(=O)c1cc(Oc2ccc(NC(=O)c3cc4cccnc4n(-c4ccc(Cl)cc4)c3=O)cc2)ccn1 |  |
| 6.59 | 6.21 | 5.47 | 6.23 | CNC(=O)c1cc(Oc2ccc(NC(=O)c3cc4cccnc4n(-c4ccccc4F)c3=O)cc2)ccn1 |  |
| 7.08 | 7.21 | 6.02 | 6.92 | CCCNC(=O)c1cc(Oc2ccc(NC(=O)c3cc4cccnc4n(-c4ccc(F)cc4)c3=O)cc2)ccn1 | pIC50 [1]: 6.16; pIC50 [2]: 8.66; pIC50 [3]: 7.63; pIC50 [4]: 8.58; pIC50 [5]: 6.54; pIC50 [6]: 6.73; pIC50 [7]: 6.32; pIC50 [8]: 6.28; pIC50 [9]: < 4.00 |
| 6.80 | 6.96 | 5.54 | 6.68 | CNC(=O)c1cc(Oc2ccc(NC(=O)c3cc4cccnc4n(-c4ccc(F)cc4)c3=O)cc2)ccn1 |  |
| 7.01 | 7.02 | 5.82 | 6.96 | CCCNC(=O)c1cc(Oc2ccc(NC(=O)c3cc4cccnc4n(-c4ccccc4)c3=O)cc2)ccn1 |  |
| 6.60 | 6.70 | 5.74 | 6.49 | CNC(=O)c1cc(Oc2ccc(NC(=O)c3cc4cccnc4n(-c4ccccc4)c3=O)cc2)ccn1 |  |
| 6.59 | 6.31 | 5.49 | 5.91 | CCNC(=O)c1cc(Oc2ccc(NC(=O)c3cc4cccnc4n(-c4ccccc4F)c3=O)cc2)ccn1 |  |
| 6.41 | 6.43 |  |  | CNC(=O)c1cc(Oc2ccc(NC(=O)c3cc4cccnc4n(-c4ccc(Cl)cc4)c3=O)cc2)ccn1 |  |
| 6.66 | 6.80 | 5.58 | 5.95 | CCNC(=O)c1cc(Oc2ccc(NC(=O)c3cc4cccnc4n(-c4ccccc4)c3=O)cc2)ccn1 |  |
| 6.70 | 6.82 | 5.63 | 6.41 | CCCNC(=O)c1cc(Oc2ccc(NC(=O)c3cc4cccnc4n(-c4ccccc4F)c3=O)cc2)ccn1 |  |
| 6.72 | 6.92 | 5.95 | 6.66 | CCNC(=O)c1cc(Oc2ccc(NC(=O)c3cc4cccnc4n(-c4ccc(F)cc4)c3=O)cc2)ccn1 |  |
| 6.41 | 6.92 |  |  | CCCNC(=O)c1cc(Oc2ccc(NC(=O)c3cc4cccnc4n(-c4ccc(Cl)cc4)c3=O)cc2)ccn1 |  |
